According to ChEMBL document CHEMBL1135795, “Bacteriopurpurinimides: highly stable and potent photosensitizers for photodynamic therapy” (J Med Chem, 2002):

Assay: Partition coefficient (logP)
Assay type: physicochemical
Conditions: octanol/water

Molecule CCCCCCN1C(=O)c2c3nc(cc4[nH]c(cc5nc(cc6[nH]c2c(c6C)C1=O)[C@H](CC)[C@H]5C)c(C(C)OC)c4C)[C@@H](C)[C@@H]3CCC(=O)OCCC (stereo partly drawn) has a logP (read-out: logP) of 8.18.

In the case of CCCCCCN1C(=O)C2=C(C)c3cc4[nH]c(cc5[nH]c(cc6nc(c(c2n3)C1=O)[C@@H](CCC(=O)OCCC)[C@@H]6C)c(C)c5C(C)OCCC)[C@H](C)[C@H]4CC (stereo partly drawn), the logP is reported as 9.16.

CCCCCCCOC(C)C1=C(C)c2cc3[nH]c(c4c5[nH]c(cc6nc(cc1n2)[C@H](C)[C@H]6CC)c(C)c5C(=O)N(CCCCCC)C4=O)[C@@H](CCC(=O)OCCC)[C@@H]3C (stereo partly drawn) showed a logP of 11.19.
